Experiments:
gastric mucosa of rats = assay: Ulcerogenic activity; type: in vivo, rat; details: oral 0.0942 mmol/kg
Procedure: The Compounds (4a-d, 5a-b) which were found potent as anti-inflammatory agents were further screened for their ulcerogenic risk. The compounds and the standard drug were tested at an oral dose of 0.0942 mmol/kg.
Animals were divided into different groups consisting of 6 rats per group. […] The control group received 0.5% of the carboxymethylcellulose (CMC) solution. […] 24 h before the test compounds were administered. After receiving the medication, the rats were given regular food for 17 h and then sacrificed. The stomach was taken out and opened along its greater curvature before being gently cleansed by dipping it in normal saline and then washing it with distilled water. The mucosal injury/damage was examined thoroughly using a magnifying glass. The mucosal injury in each stomach was scored using the following score system: 0.5: Redness; 1.0: Spot Ulcers; 1.5: Hemorrhagic Streaks; 2.0: Ulcers > 3 but 5, 3.0: Ulcers > 5. The severity index (SI) of stomach mucosal injury was calculated as the mean score of each treated group minus the mean score of the control group.

A549 cells = assay: Wound healing (migration) assay; type: cell-based, human; details: 30 µM, 0 and 24 h, vs control
Procedure: Migration of cells is directly associated with tumor progression and metastasis of cancerous cells. […] An artificial scratch or wound was created on the monolayer of A549 cells using a 200µL sterile pipette tip. […] The images of cells to fill up the artificial scratch or wounds were photographed at 0 and 24 h after the treatment and the responses were visualized using phase contrast microscopy.
Wound healing was performed with A549 cells. On six-well plates, cells were seeded at a density of 5 × 10^5 cells per well and cultured as a confluent monolayer for 24 h. A […] pipette sterile tip was used to make an artificial scratch or wound on the monolayer of A549 cells after a 24-h period, and well plates were then washed with PBS to eliminate any non-adherent cells. The therapy was then administered at the appropriate concentrations of chemicals 4c and 4b. A Nikon phase contrast microscope was used to take pictures of the movement of cells over the scratched region at 0 and 24 h in two or three randomly chosen fields.

[1] = Acute oral toxicity study; details: Wistar, rat, in vivo, 500 mg/kg
Procedure: Doxorubicin is used as standard drug […].
Animals (Wistar rats) procured were divided into three groups randomly, with six rats in each group. […] Group III is taken as control; all the animals were treated with 0.5 ml of sunflower oil per rat. All the animals were under observation, and after 24 h, mortality of treated animals was recorded. […] All the experiments performed were carried out with the approval of the IAEC, Jamia Hamdard, New Delhi.

Row | melting point [°C] | SMILES | Mean ulcer severity index ± SEM (gastric mucosa of rats) | Migration of A549 cells (wound healing) (A549 cells) | LD50 at 14 days [1] [mg/kg]
1 | 165 to 167 | CC1SC(c2c(-c3ccccc3)nc3sccn23)N(c2ccc(F)cc2)C1=O (stereo not drawn) [Compound 4a, 3-(4-Fluorophenyl)-5-methyl-2-(6-phenylimidazo[2,1-b]thiazol-5-yl) thiazolidin-4-one] | 1.167 ± 0.210 | significant suppression in the migration of A549 cells | 
2 |  | CC1SC(c2c(-c3ccccc3)nc3sccn23)N(c2ccc(Cl)cc2)C1=O (stereo not drawn) [Compound 4b, 3-(4-Chlorophenyl)-5-methyl-2-(6-phenylimidazo[2,1-b]thiazol-5-yl) thiazolidin-4-one] | 0.416 ± 0.153 | significant suppression in the migration of A549 cells | > 500
3 |  | CC1SC(c2c(-c3ccccc3)nc3sccn23)N(c2ccc(Br)cc2)C1=O (stereo not drawn) [Compound 4c, 3-(4-Bromophenyl)-5-methyl-2-(6-phenylimidazo[2,1-b]thiazol-5-yl) thiazolidin-4-one] | 0.500 ± 0.182 | significant suppression in the migration of A549 cells | > 500

Source: paper PMC11009276, “Design, synthesis, biological assessment and molecular modeling studies of novel imidazothiazole-thiazolidinone hybrids as potential anticancer and anti-inflammatory agents” (Scientific Reports, 2024)
